# Patent publication US12637424B2, “Pharmaceutical salt of an arylpyrrole derivative” (SENTINEL ONCOLOGY LIMITED, priority 2020, dated 2026)
# Tests used:
# [1] = system: HeLa cells stably expressing a Centrin1-GFP fusion protein; assay: Centriole number (Centrin1-GFP) assay; type: cell-based; conditions: 0.02 μM, 72 hours
# Protocol: The effect of A-2 on centrosome function was therefore investigated further. HeLa cells stably expressing a Centrin1-GFP fusion protein were seeded into 96-well plates overnight. Cells were treated with atropisomer A-2 (at a concentration of 0.02 μM in DMSO) or DMSO control for 72 hours and then imaged using a fluorescence microscope. Multiple cell fields were captured for each treatment condition, and the images were subsequently analysed manually. Centrin1-GFP specifically marks centrioles as discrete foci, and therefore can be used to quantitate centriole number per cell. Thus, for each treatment condition, 100 cells were analysed and the number of centrioles present in each cell was recorded. The data were then separated into bins (no centrioles, 1 centriole, 2 centrioles, and greater than 2 centrioles) and are shown in FIG. 11.
# [2] = system: U87-Luc cells intracerebrally implanted; assay: U87-Luc orthotopic xenograft model; type: in vivo, male athymic nude mice; conditions: oral 100 mg/kg on days 1, 4, 7, 10 and 13; Day 15
# Protocol: U87-Luc cells were intracerebrally implanted into the brains of male athymic nude mice and tumour growth was monitored by bioluminescent signal. In the treatment group animals were given an oral dose of 100 mg/kg of atropisomer A-2 on days 1, 4, 7, 10 and 13. The control group animals were given vehicle only.
# Capan-1 = assay: Cancer cell line panel proliferation (CellTiter-Glo); type: cell-based; conditions: Capan-1, Pancreas, 72 hours
# Protocol: (§1) Screening against diverse cancer cell lines was performed to identify tumour types displaying sensitivity to atropisomers A-1 and A-2. A panel of 48 cancer-derived cell lines was screened in a high-throughput proliferation assay using dilutions of atropisomers A-1/A-2. Cell lines that were screened included those representing cancer of the pancreas, large intestine/colorectum, lung, brain and nerves, and lymphoma and leukaemia cell lines. Cell lines were treated with serial half-log dilutions of compound and assayed 72 hours later for proliferation using CellTiter-Glo Assay (Promega). IC50 values were calculated by fitting the dose-response data using a nonlinear regression model.
# U118 MG = assay: as above; type: cell-based; conditions: Brain&Nerves, 72 hours
# Protocol: as §1
# Ramos = assay: as above; type: cell-based; conditions: Blood/Lymphoma, 72 hours
# Protocol: as §1
# Raji = assay: as above; type: cell-based; conditions: Blood/Lymphoma, 72 hours
# Protocol: as §1
# SU-DHL-6 = assay: as above; type: cell-based; conditions: SU-DHL-6, Blood/Lymphoma, 72 hours
# Protocol: as §1
# SU-DHL-2 = assay: as above; type: cell-based; conditions: SU-DHL-2, Blood/Lymphoma, 72 hours
# Protocol: as §1
# HCT 116 = assay: as above; type: cell-based; conditions: HCT 116, Large intestine/Colorectum, 72 hours
# Protocol: as §1
# WSU-DLCL2 = assay: as above; type: cell-based; conditions: WSU-DLCL2, Blood/Lymphoma, 72 hours
# Protocol: as §1
# A549 = assay: as above; type: cell-based; conditions: A549, Lung, 72 hours
# Protocol: as §1
# Panc 10.05 = assay: as above; type: cell-based; conditions: Panc 10.05, Pancreas, 72 hours
# Protocol: as §1
# KG-1 = assay: as above; type: cell-based; conditions: KG-1, Blood/Leukaemia, 72 hours
# Protocol: as §1
# NAMALWA = assay: as above; type: cell-based; conditions: Blood/Lymphoma, 72 hours
# Protocol: as §1
# JeKo-1 = assay: as above; type: cell-based; conditions: JeKo-1, Blood/Lymphoma, 72 hours
# Protocol: as §1
# Toledo = assay: as above; type: cell-based; conditions: Blood/Lymphoma, 72 hours
# Protocol: as §1
# JVM-2 = assay: as above; type: cell-based; conditions: JVM-2, Blood/Lymphoma, 72 hours
# Protocol: as §1
# SK-MES-1 = assay: as above; type: cell-based; conditions: SK-MES-1, Lung, 72 hours
# Protocol: as §1
# D283 Med = assay: as above; type: cell-based; conditions: Brain&Nerves, 72 hours
# Protocol: as §1
# NCI-H1373 = assay: as above; type: cell-based; conditions: NCI-H1373, Lung, 72 hours
# Protocol: as §1
# Z-138 = assay: as above; type: cell-based; conditions: Z-138, Blood/Lymphoma, 72 hours
# Protocol: as §1
# Daoy = assay: as above; type: cell-based; conditions: Brain&Nerves, 72 hours
# Protocol: as §1
smiles,measurement,setting,value
"CN(C)CCNC(=O)c1ccc(-c2ccc(-c3ccc(Cl)cc3)n2-c2ccccc2C(F)(F)F)cc1 (single isomer, unassigned) [Atropisomer A-2]",effect on centriole number per cell,[1],evidence of PLK4 inhibition phenotypes
same,"bioluminescent tumour signal, treated versus control",[2],a decrease in tumour signal
same,IC50,Capan-1; Homo sapiens,1230 nM
same,IC50,"U118 MG; Homo sapiens, U-118-MG",470 nM
same,IC50,Ramos; Homo sapiens,340 nM
same,IC50,Raji; Homo sapiens,360 nM
same,IC50,SU-DHL-6; Homo sapiens,260 nM
same,IC50,SU-DHL-2; Homo sapiens,200 nM
same,IC50,HCT 116; Homo sapiens,230 nM
same,IC50,"WSU-DLCL2; Homo sapiens, WSUDLCL2",360 nM
same,IC50,A549; Homo sapiens,300 nM
same,IC50,"Panc 10.05; Homo sapiens, Panc1005",1140 nM
same,IC50,KG-1; Homo sapiens,460 nM
same,IC50,NAMALWA,250 nM
same,IC50,JeKo-1; Homo sapiens,190 nM
same,IC50,Toledo; Homo sapiens,880 nM
same,IC50,JVM-2; Homo sapiens,380 nM
same,IC50,SK-MES-1; Homo sapiens,360 nM
same,IC50,D283 Med; Homo sapiens,310 nM
same,IC50,NCI-H1373; Homo sapiens,3210 nM
same,IC50,Z-138; Homo sapiens,210 nM
same,IC50,Daoy; Homo sapiens,180 nM
"CN(C)CCNC(=O)c1ccc(-c2ccc(-c3ccc(Cl)cc3)n2-c2ccccc2C(F)(F)F)cc1 (single isomer, unassigned; atropisomer a) [Atropisomer A-1]",IC50,Capan-1,> 10000 nM
same,IC50,U118 MG,7600 nM
same,IC50,Ramos,3990 nM
same,IC50,Raji,3910 nM
same,IC50,SU-DHL-6,3980 nM
same,IC50,SU-DHL-2,7010 nM
same,IC50,HCT 116,7360 nM
same,IC50,WSU-DLCL2,6740 nM
same,IC50,A549,9190 nM
same,IC50,Panc 10.05,9000 nM
same,IC50,KG-1,> 10000 nM
same,IC50,NAMALWA,7050 nM
same,IC50,JeKo-1,7940 nM
same,IC50,Toledo,> 10000 nM
same,IC50,JVM-2,4710 nM
same,IC50,SK-MES-1,7780 nM
same,IC50,D283 Med,9260 nM
same,IC50,NCI-H1373,> 10000 nM
same,IC50,Z-138,7040 nM
same,IC50,Daoy,7000 nM
